Results on one molecule are retold here after ChEMBL document CHEMBL1148034, “On the structures of crambescins B and C1” (J Nat Prod, 1993).

Converted amounts (≈) assume the structure as drawn.

The assay concerns L1210. In words: Cytotoxicity against mouse L1210 cells after 72 hrs. The class given is functional, cell-based. Particulars: L1210, 72 h.

`CCCCCCCCC[C@H]1NC(N)=N[C@@]2(CCCO2)[C@H]1C(=O)OCCCCCCCNC(=N)N` [CRAMBESCIN B] gave an IC50 of 1 µg/mL (≈ 2.08 µM).
